Reference: patent US7618774B2, “Materials and methods for identifying genes and/or agents that alter replicative lifespan” (University of Rochester, priority 2003, dated 2009)
“Also recorded” adds a separate entry of the source.

Key:
K6001 cells = assay: DEAD assay for replicative lifespan; assay type: cell-based, S. cerevisiae
Description: One yeast strain that can be used in the assays of the present invention is S. cerevisiae strain K6001, which carries two distinct non-native genes (i.e., not contained within a single cassette). This strain was originally developed for the study of mating-type switching (Bobola et al. “Asymmetric Accumulation of Ash1p in Postanaphase Nuclei Depends on a Myosin and Restricts Yeast Mating-Type Switching to Mother Cells,” Cell 84:699-709 (1996), which is hereby incorporated by reference in its entirety). K6001 cells contain two independent copies of CDC6 expressed from either the repressible GAL1or mother-cell specific HO promoters. Cdc6p is an essential protein required for DNA replication. Transcription from the HO promoter in daughter cells is prevented by Ash1p, which is expressed exclusively in daughter cells (Sil, et al., “Identification of Asymmetrically Localized Determinant, Ash1p, Required for Lineage-Specific Transcription of the Yeast HO Gene,” Cell 84:711-22 (1996), which is hereby incorporated by reference in its entirety). When K6001 cells are cultured on galactose, GAL1::CDC6 is expressed in both mother and daughter cells, sustaining the replication of both. However, when the GAL1::CDC6 gene is repressed by glucose, only the mother-specific expression of HO::CDC6 remains to support growth. Given the tight regulation of the GAL1promoter, DNA replication fails and daughter cells arrest after one, or at most a few ectopic cytokineses. As a result, K6001 cultures grow approximately linearly in glucose (daughter cells accumulate and contribute to the optical density of the culture) until the mother cells reach their replicative capacity and cease producing daughter cells. Since Cdc6 is naturally unstable, and the GAL1 promoter is efficiently shut off in glucose, the transition from log growth to linear growth is relatively tight and rapid. […]
The DEAD assay was used to assess the effect of deleting SGS1 on replicative lifespan. […] After 48 hrs at 30° C. the number of daughter cells in each microcolony was counted by microdissection and plotted as a survival curve. […]

Sir2 = Sir2 (Saccharomyces cerevisiae, UniProt P06700); settings: in vitro; cited from earlier work
Chain of Sir2 (P06700 whole entry): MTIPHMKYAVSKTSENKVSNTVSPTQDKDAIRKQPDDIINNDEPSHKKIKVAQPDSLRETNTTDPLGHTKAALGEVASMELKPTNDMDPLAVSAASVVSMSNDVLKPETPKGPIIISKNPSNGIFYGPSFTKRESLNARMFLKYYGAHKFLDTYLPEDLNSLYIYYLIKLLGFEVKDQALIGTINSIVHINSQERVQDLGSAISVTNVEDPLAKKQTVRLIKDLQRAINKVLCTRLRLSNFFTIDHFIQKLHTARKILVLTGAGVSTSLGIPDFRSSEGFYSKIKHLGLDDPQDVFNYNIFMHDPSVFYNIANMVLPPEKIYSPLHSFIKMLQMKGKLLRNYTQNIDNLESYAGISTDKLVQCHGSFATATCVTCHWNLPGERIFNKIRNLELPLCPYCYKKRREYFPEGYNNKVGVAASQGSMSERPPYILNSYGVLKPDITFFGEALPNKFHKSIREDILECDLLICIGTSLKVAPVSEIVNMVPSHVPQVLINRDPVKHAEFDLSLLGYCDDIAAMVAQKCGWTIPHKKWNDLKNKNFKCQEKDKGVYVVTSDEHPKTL

yeast = settings: literature reports; cited from earlier work
mammalian cells = settings: literature reports; cited from earlier work

Row | Compound | mean lifespan (replicative) (K6001 cells; K6001 cells cultured in presence or absence of 10 μM resveratrol, FIG. 3) | Sir2 activation (Sir2) | replicative lifespan of yeast (yeast) | lifespan (replicative) (K6001 cells; K6001 cells cultured in 5 μM paraquat versus lower concentration, FIG. 4) | mean lifespan (replicative) (K6001 cells; K6001 cells, paraquat between 0.1 μM to 5.0 μM, FIG. 4) | apoptosis (mammalian cells)
1 | Oc1ccc(C=Cc2cc(O)cc(O)c2)cc1 [resveratrol] | significantly extended the mean lifespan; also recorded: longer mean lifespan | actives Sir2 in vitro | extends the replicative lifespan of yeast | – | – | –
2 | C[n+]1ccc(-c2cc[n+](C)cc2)cc1 [paraquat] | – | – | reduce replicative lifespan in yeast | apparently shorter | decreased in a dose-dependent fashion | induce apoptosis in mammalian cells
